How the values were obtained:
[1] = molecular target: T1, HIV-1 reverse transcriptase (Human immunodeficiency virus type 1 group M subtype B, UniProt P04585); assay: Inhibition of HIV-1 reverse transcriptase (incorporation of tritiated thymidine phosphate into cDNA), alone and combined with AZT-TP; assay type: biochemical; details: for Combination Index CI50 (50% inhibition of RT) / Combination Index CI70 (70% inhibition of RT) / Combination Index CI90 (90% inhibition of RT): in combination with AZT-TP, AZT-TP/compound ratio 1/20 (MKC-442), 1/250 (R82913), 1/250 (Nevirapine), 1/40 (L-696229), CI<1 synergistic, CI>1 counterbalance
T1 construct: HIV-1 reverse transcriptase (RT)
Description: The inhibitory activity was evaluated on the basis of the incorporation Of tritiated thymidine phosphate into acid-precipitating cDNA in the presence of HIV-1 reverse transcriptase (RT).
To a reaction solution (50 mM Tris-HC1, pH 8.4, 0.1% Triton X-100, 100 mM magnesium chloride, 2 mM dithiothreitol, 50 mM potassium chloride, 0.1 mg/ml bovine serum albumin (nuclease-free, Worthington, Freehold, N.J.), 0.5 μCi [methyl-^3 H]TTP and 12 μg/ml poly(rA). p(dT)12-18)was added 10% solution of a test drug in dimethyl sulfoxide and RT (0.05 units) to obtain a reaction mixture of total volume of 50 μl. The mixture was incubated at 37° C. for 30 min and the reaction stopped with 2M EDTA (10 μl). The resultant reaction mixture (50 μl) was spotted on Whatman DE-81 filter paper circle. The circle was washed with 5% disodium hydrogenphosphate (×3), water (×2) and 95% ethanol (×2) and the radiation was counted with scintillation counter.
Thus, an isoborogram was prepared to evaluate the effect of combined use of AZT-TP and various allosteric inhibitors according to the method of Chou et al., Adv. Enzyme Regul., 22, 27-55 (1984) (FIG. 1). The data plotted were obtained by dividing IC50, the concentration of an allosteric inhibitor required to achieve 50% inhibition of reverse transcriptase of HIV, in the presence of AZT-TP with IC50 of an allosteric inhibitor obtained in the absence of a given concentration of AZT-TP. In the FIG. 1, each symbol represents individual allosteric inhibitor as follows.
Combination indexes (CI) for 50%, 70% and 90% inhibition of RT (representedby CI50, CI70 and CI90) were calculated according to the method of Prichard et al., Antimicrob. Agents Chemother., 35, 1060-1065 (1991) on the basis of results obtained in experiments carried out at least twice at indicated concentration ratio. Results are shown in Table 1 below, wherein CI<1 means the synergistic effect; CI1, additive effect; and CI>1, counterbalance effect.

[2] = background statement; cited from earlier work

Structure (SMILES)	Combination Index CI50 (50% inhibition of RT) [1]	Combination Index CI70 (70% inhibition of RT) [1]	Combination Index CI90 (90% inhibition of RT) [1]	concentration of AZT-TP for 50% inhibition of RT as fraction of its IC50 alone ([1]; in the presence of MKC-442 at 1/2 concentration of its IC50)	reported side effects [2]	IC50 ([1]; used alone, poly(rA).p(dT)12-18 template, 37° C., 30 min, read-out: IC50 (concentration required to obtain 50% inhibition of RT when used alone))
CCc1cc(CCc2nc3ccccc3o2)c(=O)[nH]c1C [L-696229, 3-[2-(Benzoxazole-2-yl)ethyl]-5-ethyl-6-methylpyridine-2(1H)-one]	0.97	0.99	1.06			
Cc1cn([C@H]2C[C@H](N=[N+]=[N-])[C@@H](COP(=O)(O)OP(=O)(O)OP(=O)(O)O)O2)c(=O)[nH]c1=O [AZT-TP, 3'-azide-3'-deoxythymidine triphosphate]				about 1/10		
Cc1cn([C@H]2C[C@H](N=[N+]=[N-])[C@@H](CO)O2)c(=O)[nH]c1=O [AZT, 3'-azide-3'-deoxythymidine]					severe anemia or leukopenia due to suppression of bone marrow	
CCOCn1c(Cc2ccccc2)c(C(C)C)c(=O)[nH]c1=O [MKC-442, 6-Benzyl-1-ethoxymethyl-5-isopropyluracil]	0.82	0.63	0.43			33.5 nM
CC(C)=CCN1Cc2cc(Cl)cc3[nH]c(=S)n(c23)C[C@@H]1C [R82913, (+)-(S)-9-Chloro-4,5,6,7-tetrahydro-5-methyl-6-(3-methyl-2-butenyl)imidazo[4,5,1-jk][1,4]benzodiazepine-2(1H)-thione]	1.15	1.33	1.70			
Cc1ccnc2c1NC(=O)c1cccnc1N2C1CC1 [Nevirapine, 5,11-Dihydro-11-cyclopropyl-4-methyldipyrido[2,3,-b:2',3'-e][1,4]diazepine-6-one]	1.04	0.91	0.69			

Source: patent US5604209A, “Synergistic antiviral compositions” (Mitsubishi Chemical Corporation, priority 1993, dated 1997)
